The text below walks through data of patent US5650428A, “Arylsulfonamide derivative and pharmaceutical compositions and use thereof” (NKK Corporation, priority 1993, dated 1997).

One assay relates to rat platelet. In words: Inhibitory activity of aggregation in rat platelet. The assay is classed as cell-based. Conditions: rat platelet rich plasma, arachidonic acid (final concentration 0.5 mM) as inducer; read-out: C: Inhibitory activity of aggregation in rat platelet (IC50; μM). The procedure:
(3) Inhibitory Activity of Aggregation in Rat Platelet The abdomen of etherized rat was open, and blood was taken from the abdominal arteries, using a sodium citrate solution (final concentration was 0.38%). The blood was centrifuged at 1100 rpm for 10 minutes, and the supernatent was separated as the platelet rich plasma. The plasma was further centrifuged at 2000 rpm for 15 minutes to obtain the supernatent as a platelet poor plasma. The platelet rich plasma (280 μl) was placed in a measuring cuvette and preincubated for 1 minute at 37° C. Then, a sample solution (10 μl) was added. After 2 minutes, an arachidonic acid solution (final concentration=0.5 mM) (10 μl) was added as an inducer. The change in light transmission was recorded for 5 minutes.

Assay [1] deals with T1, thromboxane A2 (TxA2) receptor (Cavia porcellus, UniProt A0A286Y4I8).
T1 construct: to obtain washed platelets; from tissue; host or cells: washed platelets of male Hartley guinea pigs
T1 sequence (A0A286Y4I8 1-347): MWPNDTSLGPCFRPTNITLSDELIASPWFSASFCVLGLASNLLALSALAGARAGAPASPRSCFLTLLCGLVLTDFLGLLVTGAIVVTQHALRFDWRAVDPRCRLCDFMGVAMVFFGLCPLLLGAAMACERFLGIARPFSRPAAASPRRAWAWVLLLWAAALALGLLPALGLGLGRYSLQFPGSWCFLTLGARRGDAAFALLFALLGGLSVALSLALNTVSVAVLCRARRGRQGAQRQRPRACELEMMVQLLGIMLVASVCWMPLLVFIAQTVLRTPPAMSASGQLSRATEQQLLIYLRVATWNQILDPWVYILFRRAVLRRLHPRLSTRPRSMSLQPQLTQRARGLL
Description: TxA2 antagonist action by binding assay. Particulars: washed guinea pig platelets, 1 nM [3H]-SQ29,548, 45 minutes at 25° C. The procedure: (1) TxA2 antagonist action by binding assay Guinea pigs (Hartley; male; body weight=approximately 500 g) were anesthetized with ether, and the blood was collected into sodium citrate (final concentration=0.38%). The preparation of platelets was carried out at room temperature. The platelet rich plasma was obtained by centrifugation at 980 rpm for 10 minutes. One tenth (1/10) amount of 77 mM-EDTA-Na (pH 7.4) was added to the platelet rich plasma, and the mixture was centrifuged for 10 minutes at 3000 rpm. The suspension was again centrifuged at 3000 rpm for 10 minutes. The precipitate was further resuspended in a suspension buffer (2) shown in Table 2 to obtain washed platelets. The number of platelets was counted by an automatic blood cell counter (Sysmex Microcellcounter F-800) and the sample was diluted with the suspension buffer to 4×10^8 cells/ml. The platelets, sample solution and labeled compounds were placed into plastic tubes in amounts (volumes) shown in the following Table 3, incubated for 45 minutes at 25° C., and then the mixture was filtered using a cell harvester (Brandel cell harvester M-24R) by a glass fiber filter (Whatman GF/B). After the filter was sufficiently dried, the scintillation was counted by a scintillation counter (Beckman LS5000TD). IC50 was calculated from (binding)/(control binding) ratio in the presence of an antagonist. [table 3: the next 10 blocks are its lines as printed, fixed-width]

Regarding `O=C(O)Cc1ccc(NC(=O)C(COc2cccnc2)NS(=O)(=O)c2ccc(F)cc2)cc1` (racemic) [Example 123, (RS)-N-(4-(carboxymethyl)phenyl)-2-(4-fluorobenzenesulfonylamino)-3-(pyridin-3-yloxy)propanamide], the IC50 with rat platelet was determined as 0.31 µM; in assay [1], 2 µM.

With `O=C(O)Cc1ccc(NC(=O)C(COc2cccnc2)NS(=O)(=O)c2ccc(Br)cc2)cc1` (racemic) [Example 124, (RS)-2-(4-bromobenzenesulfonylamino)-N-(4-(carboxymethyl)phenyl)-3-(pyridin-3-yloxy)propanamide], the IC50 with rat platelet stood at 0.31 µM; in assay [1] it was 0.13 µM.

As for `O=C(O)Cc1ccc(NC(=O)C(COc2ccccc2)NS(=O)(=O)c2ccc(Cl)cc2)cc1` (racemic) [Example 129, (RS)-N-(4-(carboxymethyl)phenyl)-2-(4-chlorobenzenesulfonylamino)-3-phenoxypropanamide], the IC50 in the assay on rat platelet is 0.54 µM; in assay [1] it was 0.72 µM.

As for `O=C(O)Cc1ccc(NC(=O)C(COc2ccc(Cl)cc2)NS(=O)(=O)c2ccc(Cl)cc2)cc1` (racemic) [Example 130, (RS)-N-(4-(carboxymethyl)phenyl)-2-(4-chlorobenzenesulfonylamino)-3-(4-chlorophenoxy)propanamide], the IC50 in the assay on rat platelet came out at 1.7 µM; in assay [1], 0.16 µM.

For the molecule `O=C(O)Cc1ccc(NC(=O)C(COc2cccc(Cl)c2)NS(=O)(=O)c2ccc(Cl)cc2)cc1` (racemic) [Example 131, (RS)-N-(4-(carboxymethyl)phenyl)-2-(4-chlorobenzenesulfonylamino)-3-(3-chlorophenoxy)propanamide], the IC50 in the assay on rat platelet came to 1.7 µM; in assay [1], 0.047 µM.

`O=C(O)Cc1ccc(NC(=O)C(COc2ccccc2Cl)NS(=O)(=O)c2ccc(Cl)cc2)cc1` (racemic) [Example 132, (RS)-N-(4-(carboxymethyl)phenyl)-2-(4-chlorobenzenesulfonylamino)-3-(2-chlorophenoxy)propanamide]: the results for the IC50 (in the assay with rat platelet; in assay [1]) were 1.7 µM and 0.023 µM, respectively.

With `O=C(O)Cc1ccc(NC(=O)C(COc2ccccc2)NS(=O)(=O)c2ccc(F)cc2)cc1` (racemic) [Example 136, (RS)-N-(4-(carboxymethyl)phenyl)-2-(4-fluorobenzenesulfonylamino)-3-phenoxypropanamide], the IC50 with rat platelet is 0.55 µM; in assay [1] it was 0.15 µM.

As to `O=C(O)Cc1ccc(NC(=O)C(COc2ccc(Cl)cc2)NS(=O)(=O)c2ccc(F)cc2)cc1` (racemic) [Example 137, (RS)-N-(4-(carboxymethyl)phenyl)-3-(4-chlorophenoxy)-2-(4-fluorobenzenesulfonylamino)propanamide], the IC50 with rat platelet is 1.7 µM; in assay [1], 0.1 µM.

`O=C(O)Cc1ccc(NC(=O)C(COc2cccc(Cl)c2)NS(=O)(=O)c2ccc(F)cc2)cc1` (racemic) [Example 138, (RS)-N-(4-(carboxymethyl)phenyl)-3-(3-chlorophenoxy)-2-(4-fluorobenzenesulfonylamino)propanamide]: the IC50 was found to be 0.53 µM in the assay with rat platelet and 0.1 µM in assay [1].

For `O=C(O)Cc1ccc(NC(=O)C(COc2ccccc2)NS(=O)(=O)c2ccc(Br)cc2)cc1` (racemic) [Example 142, (RS)-2-(4-bromobenzenesulfonylamino)-N-(4-(carboxymethyl)phenyl)-3-phenoxypropanamide], the IC50 worked out at 0.53 µM in the assay on rat platelet and 0.024 µM in assay [1].

For the molecule `O=C(O)Cc1ccc(NC(=O)C(COc2ccc(Cl)cc2)NS(=O)(=O)c2ccc(Br)cc2)cc1` (racemic) [Example 143, (RS)-2-(4-bromobenzenesulfonylamino)-N-(4-(carboxymethyl)phenyl)-3-(4-chlorophenoxy) propanamide], the results for the IC50 (in the assay on rat platelet; in assay [1]) were 1.7 µM and 0.037 µM, respectively.

On to `O=C(O)Cc1ccc(NC(=O)C(COc2cccc(Cl)c2)NS(=O)(=O)c2ccc(Br)cc2)cc1` (racemic) [Example 144, (RS)-2-(4-bromobenzenesulfonylamino)-N-(4-(carboxymethyl)phenyl)-3-(3-chlorophenoxy) propanamide], for which the IC50 was found to be 0.53 µM in the assay with rat platelet and 0.051 µM in assay [1].

On to `O=C(O)Cc1ccc(NC(=O)C(COc2ccccc2)NS(=O)(=O)c2ccc(I)cc2)cc1` (racemic) [Example 149, (RS)-N-(4-(carboxymethyl)phenyl)-2-(4-iodobenzenesulfonylamino)-3-phenoxypropanamide], for which the results for the IC50 (in the assay on rat platelet; in assay [1]) were 0.17 µM and 0.017 µM, respectively.

For the molecule `O=C(O)Cc1ccc(NC(=O)C(COc2ccc(Cl)cc2)NS(=O)(=O)c2ccc(I)cc2)cc1` (racemic) [Example 150, (RS)-N-(4-(carboxymethyl)phenyl)-3-(4-chlorophenoxy)-2-(4-iodobenzenesulfonylamino)propanamide], the IC50 stood at 5.4 µM with rat platelet and 0.019 µM in assay [1].

Regarding `O=C(O)Cc1ccc(NC(=O)C(COc2cccc(Cl)c2)NS(=O)(=O)c2ccc(I)cc2)cc1` (racemic) [Example 151, (RS)-N-(4-(carboxymethyl)phenyl)-3-(3-chlorophenoxy)-2-(4-iodobenzenesulfonylamino) propanamide], the values for the IC50 (with rat platelet; in assay [1]) were 1.7 µM and 0.019 µM, respectively.

As for `O=C(O)Cc1ccc(NC(=O)C(COc2ccccc2Cl)NS(=O)(=O)c2ccc(I)cc2)cc1` (racemic) [Example 152, (RS)-N-(4-(carboxymethyl)phenyl)-3-(2-chlorophenoxy)-2-(4-iodobenzenesulfonylamino)propanamide], the IC50 came to 1.7 µM in the assay on rat platelet and 0.074 µM in assay [1].

In the case of `O=C(O)Cc1ccc(NC(=O)C(CCOC2CCCCO2)NS(=O)(=O)c2ccc(Cl)cc2)cc1` (racemic) [Example 169, (RS)-N-(4-(carboxymethyl)phenyl)-2-(4-chlorobenzenesulfonylamino)-4-(tetrahydropyran-2-yloxy)butanamide], the IC50 in the assay on rat platelet came to 1.7 µM; in assay [1], 0.69 µM.

As to `O=C(O)Cc1ccc(NC(=O)C(CCc2ccccc2)NS(=O)(=O)c2ccc(Cl)cc2)cc1` (racemic) [Example 172, (RS)-N-(4-(carboxymethyl)phenyl)-2-(4-chlorobenzenesulfonylamino)-4-phenylbutanamide], the IC50 stood at 1.7 µM in the assay on rat platelet and 0.072 µM in assay [1].

As to `O=C(O)CCc1ccc(NC(=O)C(CCc2ccccc2)NS(=O)(=O)c2ccc(Cl)cc2)cc1` (racemic) [Example 174, (RS)-N-(4-(2-carboxyethyl)phenyl)-2-(4-chlorobenzenesulfonylamino)-4-phenylbutanamide], the results for the IC50 (with rat platelet; in assay [1]) were 5.3 µM and 0.17 µM, respectively.

For the molecule `CCCCC(NS(=O)(=O)c1ccc(Br)cc1)C(=O)Nc1ccc(CC(=O)O)cc1` (racemic) [Example 226, (RS)-2-(4-bromobenzenesulfonylamino)-N-(4-(carboxymethyl)phenyl)hexanamide], the figures for the IC50 (in the assay on rat platelet; in assay [1]) were 0.53 µM and 0.072 µM, respectively.

For `CC(C)CC(NS(=O)(=O)c1ccc(Cl)cc1)C(=O)Nc1ccc(CC(=O)O)cc1` (racemic) [Example 232, (RS)-N-(4-(carboxymethyl)phenyl)-2-(4-chlorobenzenesulfonylamino)-4-methylpentanamide], the IC50 came to 1.7 µM in the assay on rat platelet and 0.16 µM in assay [1].

For orientation: IC50 means the midpoint of a concentration-inhibition curve.
